Columns and labels:
human GLP-1R = human GLP-1R (Homo sapiens, UniProt P43220, L260F); test: CHO GLP-1R Clone C6 - Assay 2 (HTRF cAMP agonist assay, low receptor density)
Experimental: GLP-1R-mediated agonist activity was determined with a cell-based functional assay utilizing an HTRF (Homogeneous Time-Resolved Fluorescence) cAMP detection kit (cAMP HI Range Assay Kit; Cis Bio cat #62AM6PEJ) that measures cAMP levels in the cell. The method is a competitive immunoassay between native cAMP produced by the cells and exogenous cAMP labeled with the dye d2. The tracer binding is visualized by a mAb anti-cAMP labeled with Cryptate. The specific signal (i.e. energy transfer) is inversely proportional to the concentration of cAMP in either a standard or an experimental sample. […]
After 48 hours, the growth media was removed from the assay plate wells, and the cells were treated with 20 μL of the serially diluted compound in assay buffer for 30 minutes at 37° C. in a humidified environment (95% O2, 5% CO2). […] The plates were then incubated at room temperature and after 60 minutes, changes in the HTRF signal were read with an Envision 2104 multi-label plate reader using excitation of 330 nm and emissions of 615 and 665 nm. Raw data were converted to nM cAMP by interpolation from a cAMP standard curve (as described in the manufacturer's assay protocol) and the percent effect was determined relative to a saturating concentration of the full agonist GLP-1 (1 μM) included on each plate. […]

[1] = Circulating metabolites of Compound 1 in rat plasma following a 1.0 mg/kg IV bolus dose; assay type: in vivo; conditions: 1.0 mg/kg IV bolus dose of Compound 1, pooled plasma 0.033-24 hrs, male rats
Experimental: (§1) Plasma and bile samples were obtained from a bile duct cannulated rat experiment (Study PK-0111) in which a 1.0 mg/kg IV bolus dose was administered to fed male rats (N=3). No control plasma was available from this experiment.
Clin Pharmacol Ther 1981; 29(3):408-13]. The entire volume of each replicate Hamilton pool was combined to create a single pooled sample (576 μL) for analysis.
(§2) Pooled plasma and bile samples were extracted with ACN containing 0.1% formic acid, and after centrifugation at 1900×g, the supernatant was transferred to clean tubes and evaporated under N2 in a Turbovap set at 37° C. Residues were reconstituted in mobile phase (5:95 v:v ACN:0.1% aqueous formic acid) prior to analysis by HPLC/UV/MS^n.
(§3) Samples were analyzed by HPLC/UV/MS^n using a Thermo Orbitrap Elite mass spectrometer in conjunction with a Thermo Open Accela UHPLC system. A 3.0×150 mm, 2.5 μm Acquity CSH C18 HPLC column (Waters) was heated to 45° C. for separation of analytes. The mobile phase was a gradient of A): water containing 0.1% formic acid, and B): acetonitrile. The flow rate was 450 μL/min, and the following gradient program was utilized: […]
(§4) UV absorbance was monitored with a photo-diode array detector from 220-450 nm. The mass spectrometer was operated in positive-ion mode with a HESI ion source at a potential of 3.0 kV, and capillary and source heater temperatures of 380 and 300° C., respectively. Sheath, auxiliary, and sweep gas flows were set to 45, 10, and 2 units, respectively. Full scan mass spectra were acquired over the range 120-1200 m/z at a resolving power of 30,000 (specified at m/z 400). Data-dependent MS^n spectra were acquired in an automated fashion at 15,000 resolving power using CID and HCD fragmentation with normalized collision energy settings of 28 and 65 V, respectively.
(§5) Metabolites were characterized by comparisons of mass spectral fragmentation patterns with that of a Compound 1 standard. All HPLC/UV/MS^n data were processed using Xcalibur v. 2.2, and integrated UV peak areas were subjected to weighted UV binning procedures utilizing an Excel template.

[2] = tested on: female New Zealand rabbit hepatocytes; test: In vitro metabolism of Compound 1 in rabbit cryopreserved hepatocytes; assay type: in vitro ADME; conditions: HPLC/UV/MS; for metabolite of Compound 1 observed in rabbit hepatocyte incubations: 10 μM Compound 1, 7.5×10^5 cells/mL, 1 and 4 hrs composite sample; for Relative abundance of metabolite of Compound 1, Rabbit: rabbit cryopreserved hepatocytes; on Relative abundance of metabolite of Compound 1, Rabbit: key: ND Not detected; trace: Trace: observed by HPLC/MS measurements only; + Minor as assessed by HPLC/UV measurements; ++ moderate as assessed by HPLC/UV measurements; +++ major as assessed by HPLC/UV measurements; * m/z 593 and m/z 505 co-eluted in rabbit hepatocytes; ** m/z 591c and m/z 593 were merged in human hepatocytes and Hepatopack; *** m/z 607 and m/z 751b were merged in rabbit hepatocytes
Experimental: (§6) Male CD-1 mouse hepatocytes (lot YHL), male Wistar-Han rat hepatocytes (Celsis; product number: M000065; lot: SLA), female New Zealand rabbit hepatocytes (lot 1510147), male cryopreserved cynomolgus monkey hepatocytes (Celsis; product number: M00305; lot: DNB) and mixed-gender cryopreserved human hepatocytes (Bioreclamation; product number: S01988; lot: DCM) were obtained for the hepatocyte in-vitro assessments.
(§7) At time 0 hrs 550 μL aliquots were removed from incubations and quenched with 5 volumes of ACN containing 0.1% formic acid. At 1 and 4 hrs, 275 μL aliquots were removed and quenched as above; these were combined in the same tube to prepare a composite sample. For all hepatocyte experiments, samples were processed by centrifugation at 1900×g for 5 minutes, and then the supernatant was transferred to clean glass tubes and evaporated to dryness under a stream of N2 using a Turbovap at 37° C. Sample residues were reconstituted in mobile phase prior to analysis by HPLC/UV/MS^n.
as §3, §4, §5

[3] = tested on: male Wistar-Han rat hepatocytes; test: In vitro metabolism of Compound 1 in rat cryopreserved hepatocytes; assay type: in vitro ADME; conditions: HPLC/UV/MS; for metabolite of Compound 1 observed in rat hepatocyte incubations: 10 μM Compound 1, 7.5×10^5 cells/mL, 1 and 4 hrs composite sample; for Relative abundance of metabolite of Compound 1, Rat: rat cryopreserved hepatocytes; on Relative abundance of metabolite of Compound 1, Rat: key: ND Not detected; trace: Trace: observed by HPLC/MS measurements only; + Minor as assessed by HPLC/UV measurements; ++ moderate as assessed by HPLC/UV measurements; +++ major as assessed by HPLC/UV measurements; * m/z 593 and m/z 505 co-eluted in rabbit hepatocytes; ** m/z 591c and m/z 593 were merged in human hepatocytes and Hepatopack; *** m/z 607 and m/z 751b were merged in rabbit hepatocytes
Experimental: as §6, §7, §3, §4, §5

[4] = Metabolites of Compound 1 in rat bile following a 1.0 mg/kg IV bolus dose (bile duct cannulated rat); assay type: in vivo; conditions: 1.0 mg/kg IV bolus dose of Compound 1, pooled bile 0-24 hrs, bile duct cannulated male rats
Experimental: as §1
Bile samples (0-3, 3-7, and 7-24 hrs) from individual animals were pooled in proportion to the amount collect in each interval. Then 0.5 mL of each individual pool was combined to prepare a composite sample for analysis.
as §2, §3, §4, §5

[5] = tested on: mixed-gender cryopreserved human hepatocytes; test: In vitro metabolism of Compound 1 in human cryopreserved hepatocytes; assay type: in vitro ADME; conditions: HPLC/UV/MS; for metabolite of Compound 1 observed in human hepatocyte incubations: 10 μM Compound 1, 7.5×10^5 cells/mL, 1 and 4 hrs composite sample; for Relative abundance of metabolite of Compound 1, Human: human cryopreserved hepatocytes; on Relative abundance of metabolite of Compound 1, Human: key: ND Not detected; trace: Trace: observed by HPLC/MS measurements only; + Minor as assessed by HPLC/UV measurements; ++ moderate as assessed by HPLC/UV measurements; +++ major as assessed by HPLC/UV measurements; * m/z 593 and m/z 505 co-eluted in rabbit hepatocytes; ** m/z 591c and m/z 593 were merged in human hepatocytes and Hepatopack; *** m/z 607 and m/z 751b were merged in rabbit hepatocytes
Experimental: as §6, §7, §3, §4, §5

[6] = tested on: male cryopreserved cynomolgus monkey hepatocytes; test: In vitro metabolism of Compound 1 in monkey cryopreserved hepatocytes; assay type: in vitro ADME; conditions: HPLC/UV/MS; for metabolite of Compound 1 observed in monkey hepatocyte incubations: 10 μM Compound 1, 7.5×10^5 cells/mL, 1 and 4 hrs composite sample; for Relative abundance of metabolite of Compound 1, Monkey: monkey cryopreserved hepatocytes; on Relative abundance of metabolite of Compound 1, Monkey: key: ND Not detected; trace: Trace: observed by HPLC/MS measurements only; + Minor as assessed by HPLC/UV measurements; ++ moderate as assessed by HPLC/UV measurements; +++ major as assessed by HPLC/UV measurements; * m/z 593 and m/z 505 co-eluted in rabbit hepatocytes; ** m/z 591c and m/z 593 were merged in human hepatocytes and Hepatopack; *** m/z 607 and m/z 751b were merged in rabbit hepatocytes
Experimental: as §6, §7, §3, §4, §5

[7] = tested on: Male CD-1 mouse hepatocytes; test: In vitro metabolism of Compound 1 in mouse cryopreserved hepatocytes; assay type: in vitro ADME; conditions: HPLC/UV/MS; for metabolite of Compound 1 observed in mouse hepatocyte incubations: 10 μM Compound 1, 7.5×10^5 cells/mL, 1 and 4 hrs composite sample; for Relative abundance of metabolite of Compound 1, Mouse: mouse cryopreserved hepatocytes
Experimental: as §6, §7, §3, §4, §5

[8] = tested on: human co-cultured hepatocytes (Hepatopack); test: In vitro metabolism of Compound 1 in human micropatterned co-cultured hepatocytes (Hepatopack); assay type: in vitro ADME; conditions: for Relative abundance of metabolite of Compound 1, Hepatopack: human co-cultured hepatocytes (Hepatopack), HPLC/UV/MS
From the text: Micro-patterned co-cultured (MPCC) hepatocyte 24-well plates containing human donors (16 wells each) were provided by Ascendance Biotechnology (formerly Hepregen Corp. (Medford, Mass.). [see Wang W W W, Khetani S R, Krzyzewski S, et al. Assessment of a Micropatterned Hepatocyte Coculture System to Generate Major Human Excretory and Circulating Drug Metabolites. Drug Metab Dispos 2010; 38(10):1900-51 The MPCCs were created at Ascendance Biotechnology and maintained in serum containing medium for 5-6 days to allow for stabilization of the co-cultures prior to shipment. A mixed-gender cryopreserved pool of 10 human donors (X008001-P; lot YFA) was used to seed the plates and was purchased from BioreclamationlVT (Westbury, N.Y.). MPCC hepatocytes are plated with fibroblasts in a 1:3 ratio with ˜25,000 hepatocytes/well in a 24-well plate. 24-Well MPCC plates were shipped to Pfizer, fresh medium (400 μL/well) was applied and cultures were kept at 37° C. with […] and 95% relative humidity for two days. Micropatterned co-cultures containing pooled hepatocytes were allowed 7 days to fully stabilize with respect to liver-specific functions. […] At respective time points (0, 2, and 7 days), the culture medium was removed and mixed with 4 volumes of ACN, then stored frozen at −40° C. until samples could be analyzed. Samples were subsequently processed by the addition of 2.5 mL of 1:1 ACN:MeOH containing 0.1% formic acid. After vortexing, the samples were centrifuged at 1900×g for 5 min, then the supernatant was transferred to 15 mL conical tubes and evaporated under N2 using a Turbovap set at 37° C. The residues were reconstituted in mobile phase (5:95 v:v ACN:0.1% aqueous formic acid) prior to analysis by HPLC/UV/MS^n.
as §3
UV absorbance was monitored with a photo-diode array detector from 220-450 nm. The mass spectrometer was operated in positive-ion mode with a HESI ion source at a potential of 3.0 kV, and capillary and source heater temperatures of 380 and 300° C., respectively. Sheath, auxiliary, and sweep gas flows were set to 45, 10, and 2 units, respectively. Full scan mass spectra were acquired over the range 120-1200 m/z at a resolving power of 30,000 (specified at m/z 400). […]

Chain of human GLP-1R (P43220 24-463 L260F): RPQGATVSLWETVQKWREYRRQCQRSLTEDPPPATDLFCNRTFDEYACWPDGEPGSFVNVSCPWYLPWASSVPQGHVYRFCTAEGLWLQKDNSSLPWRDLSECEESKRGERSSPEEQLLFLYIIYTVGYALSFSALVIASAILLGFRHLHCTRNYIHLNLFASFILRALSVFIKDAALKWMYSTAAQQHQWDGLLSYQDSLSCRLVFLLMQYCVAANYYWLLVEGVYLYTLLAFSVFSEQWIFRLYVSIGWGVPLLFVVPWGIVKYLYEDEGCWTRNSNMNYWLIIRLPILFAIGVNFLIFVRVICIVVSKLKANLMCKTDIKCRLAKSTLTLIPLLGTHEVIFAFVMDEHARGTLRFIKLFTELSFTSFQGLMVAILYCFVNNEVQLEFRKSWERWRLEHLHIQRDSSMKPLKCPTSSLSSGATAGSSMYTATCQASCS

SMILES: C[C@]1(c2ccc(Cl)cn2)Oc2cccc(C3CCN(Cc4nc5ccc(C(=O)O[C@@H]6O[C@H](C(=O)O)[C@@H](O)[C@H](O)[C@H]6O)cc5n4C[C@@H]4CCO4)CC3)c2O1 [Metabolite 751b]
- EC50 (human GLP-1R): 170 nM
- detected in rat plasma [1]: observed
- detected in rat plasma ([1]; listed as m/z 751b): detected
- metabolite of Compound 1 observed in rabbit hepatocyte incubations [2]: observed
- metabolite of Compound 1 observed in rat hepatocyte incubations [3]: observed
- detected in rat bile [4]: observed
- detected in rat bile ([4]; listed as m/z 751b): detected
- metabolite of Compound 1 observed in human hepatocyte incubations [5]: observed
- metabolite of Compound 1 observed in human hepatocyte incubations ([5]; listed as m/z 751b): most abundant metabolites
- metabolite of Compound 1 observed in monkey hepatocyte incubations [6]: observed
- metabolite of Compound 1 observed in mouse hepatocyte incubations [7]: observed
- metabolite of Compound 1 observed in human Hepatopack system ([8]; Compound 1 tris salt 20 μM, human MPCC hepatocytes, 0, 2 and 7 days): most abundant metabolites

SMILES: CC1(c2ccc(Cl)cn2)Oc2cccc(C3CCN(Cc4nc5ccc(C(=O)OC6OC(C(=O)O)C(O)C(O)C6O)cc5n4CC4CCO4)CC3)c2O1 (centres unmarked) [Metabolite 751b]
- Relative abundance of metabolite of Compound 1, Rabbit [2]: ++
- Relative abundance of metabolite of Compound 1, Rat [3]: +
- Relative abundance of metabolite of Compound 1, Human [5]: +++
- Relative abundance of metabolite of Compound 1, Monkey [6]: +++
- Relative abundance of metabolite of Compound 1, Mouse [7]: ++
- Relative abundance of metabolite of Compound 1, Hepatopack [8]: ++

SMILES: C[C@]1(c2ccc(Cl)cn2)Oc2cccc(-c3cc[n+](Cc4nc5ccc(C(=O)O)cc5n4C[C@@H]4CCO4)cc3)c2O1 [Metabolite 569]
- metabolite of Compound 1 observed in rabbit hepatocyte incubations [2]: observed
- Relative abundance of metabolite of Compound 1, Rabbit [2]: +
- metabolite of Compound 1 observed in rat hepatocyte incubations [3]: observed
- Relative abundance of metabolite of Compound 1, Rat [3]: trace
- metabolite of Compound 1 observed in human hepatocyte incubations [5]: observed
- Relative abundance of metabolite of Compound 1, Human [5]: +
- metabolite of Compound 1 observed in monkey hepatocyte incubations [6]: observed
- Relative abundance of metabolite of Compound 1, Monkey [6]: trace
- metabolite of Compound 1 observed in mouse hepatocyte incubations [7]: observed
- Relative abundance of metabolite of Compound 1, Mouse [7]: +
- Relative abundance of metabolite of Compound 1, Hepatopack [8]: +

SMILES: C[C@]1(c2ccc(Cl)cn2)Oc2cccc(C3CCNCC3)c2O1 [Metabolite 331]
- detected in rat plasma [1]: observed
- detected in rat plasma ([1]; listed as m/z 331): detected
- metabolite of Compound 1 observed in rabbit hepatocyte incubations [2]: observed
- Relative abundance of metabolite of Compound 1, Rabbit [2]: trace
- metabolite of Compound 1 observed in rat hepatocyte incubations [3]: observed
- Relative abundance of metabolite of Compound 1, Rat [3]: trace
- detected in rat bile [4]: observed
- detected in rat bile ([4]; listed as m/z 331): detected
- metabolite of Compound 1 observed in human hepatocyte incubations [5]: observed
- Relative abundance of metabolite of Compound 1, Human [5]: +
- metabolite of Compound 1 observed in monkey hepatocyte incubations [6]: observed
- Relative abundance of metabolite of Compound 1, Monkey [6]: +
- metabolite of Compound 1 observed in mouse hepatocyte incubations [7]: observed
- Relative abundance of metabolite of Compound 1, Mouse [7]: +
- Relative abundance of metabolite of Compound 1, Hepatopack [8]: trace
